Measured values as given in patent US12037417B2, “Site-specific radioisotope-labeled antibody using IgG-binding peptide” (Kagoshima University, priority 2016, dated 2024).

Experiments:
hIgG = biological target: T1, hIgG (Homo sapiens, UniProt P01857); experiment: ELISA of biotinylated IgG-binding peptide on plate-adsorbed hIgG; settings: peptide unmodified with cross-linking agent
T1 construct: purchased Chugai Pharmaceutical Co., Ltd
Experimental: A 0.1 M NaHCO3 solution containing each protein (IgG (Chugai Pharmaceutical Co., Ltd.), IgA (Athens Research & Technology, Inc.), or bovine gelatin (Wako Pure Chemical Industries, Ltd.)) (50 ng (0.33 pmol)/μ1/well) was added to wells of a 96-well microplate (Nunc® MaxiSorp), and the plate was left overnight at room temperature to adsorb each protein onto the surface of the plate. After blocking with 0.5% BSA, a biotinylated IgG-binding peptide modified with DSG (molar ratio: 0, 1, 2, 5, or 10), prepared in the same way as in Example 2 was added to each well. After 1 hour, the reaction was terminated by the addition of 1 M Tris-HCl (pH 7.0) at 3 μL/well. SA-HRP (Vector Laboratories, Inc.) diluted 2000-fold with 0.5% BSA was added thereto at 50 μL/well and reacted at room temperature for 1 hour. Then, the plate was washed five times with 0.1% PBST. Then, a TMB solution (Wako Pure Chemical Industries, Ltd.) was used in the color development of HRP. After 5-minute chromogenic reaction, the absorbance at 450 nm was measured using an ELISA plate reader (model 680 microplate reader (Bio-Rad Laboratories, Inc.)).
The biotinylated IgG-binding peptide modified with DSG was added at a molar ratio of 2 to hIgG (50 ng) immobilized overnight at 4° C. with a 50 ng/50 μL solution. […] The binding was detected in the same way as in (A).

human IgG = human IgG (Homo sapiens, UniProt P01857); experiment: SPR affinity analysis of IgG-binding peptides on immobilized IgG (BIAcore T200); design: kd: unit not given here; settings: for ka / kd: SPR, peptides N-terminally blocked with biotinylated PEG4, NHS group hydrolysed
Experimental: 0.4 M EDC (1-ethyl-3-(3-dimethylaminopropyl)-carbodiimide) and 0.1 M sulfo-NHS (sulfo-N-hydroxysuccinimide) were mixed in equal amounts and then injected onto a CMS sensor chip loaded in BIAcore T200 (GE Healthcare Japan Corp.) for 7 minutes at a flow rate of […] to activate the sensor chip. IgG was immobilized thereonto in an amount of 4000 to 5000 in terms of RU value under conditions of pH 4.0 (10 mM sodium acetate). While a HBS-EP buffer solution (0.01 M HEPES, 0.15 M NaCl, 0.005% Tween 20, and 3 mM EDTA, pH 7.0) was used, binding reaction was monitored by the injection of the peptide at a concentration of 10 nM to 2 μM for 180 seconds at a flow rate of […]. Then, dissociation reaction was assayed by washing with a buffer solution for 600 seconds. Binding parameters were analyzed using BIAevalution T100 software.

Sequence of human IgG (P01857 1-328): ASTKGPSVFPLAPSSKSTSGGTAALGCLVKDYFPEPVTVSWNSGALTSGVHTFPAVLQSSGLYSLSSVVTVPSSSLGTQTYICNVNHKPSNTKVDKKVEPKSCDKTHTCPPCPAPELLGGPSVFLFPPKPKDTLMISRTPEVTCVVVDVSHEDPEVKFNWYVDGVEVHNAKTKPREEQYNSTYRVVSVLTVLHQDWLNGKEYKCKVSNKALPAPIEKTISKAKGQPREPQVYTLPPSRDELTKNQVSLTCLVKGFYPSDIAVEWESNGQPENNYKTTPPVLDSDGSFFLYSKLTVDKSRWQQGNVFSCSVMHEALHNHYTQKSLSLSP
T1 sequence (P01857 1-328): as above

For GDDCAYHKGELVWCTFH-NH2 [Type I(R8K)], the “binding to hIgG (ELISA)” value (hIgG) was “Very weak binding”, the “decrease of affinity for human IgG as compared with Type I” value (human IgG; R8K substitution versus peptide before substitution) was 10 times and the ka (human IgG) was 1.25E+06. For the same substance, the kd (human IgG) was 0.195.

With GPDCAYHRGELVWCTFH-NH2 [Type I] the ka (human IgG) was 1.57E+06 and the kd (human IgG) was 0.0144.

With “GDDCAYHK(DSG-OH)GELVWCTFH-NH2 [Type I(R8K)-DSG-OH]” the ka (human IgG) was 3.29E+05 and the kd (human IgG) was 0.1036.

“GDDCAYHK(DSS-OH)GELVWCTFH-NH2 [Type I(R8K)-DSS-OH]” showed a ka (human IgG) of 1.68E+05 and a kd (human IgG) of 0.06136.
